A short description of series [1]: EPR competition with BMPO, superoxide anion from KO2 in DMSO (organic phase). Particulars: KO2 5 mM in DMSO, BMPO 25 mM, room temperature; read-out: IC50, inhibition of the formation of the BMPO superoxide adduct. How it is done:
The reactivity of compound (1) with superoxide anion in the organic phase was studied by EPR at room temperature using a competition method with the superoxide trapping reagent BMPO (5-tent-butoxycarbonyl-5-methyl-1-pyrroline N-oxide) (FIG. 1A). The superoxide anion source is potassium salt (KO2) used at 5 mM in DMSO after ultrasound-assisted dissolution. The concentrations used for compound (1) are between 0.31 and 40 μM. The trapping reagent BMPO is used at a final concentration of 25 mM. These experiments were carried out with a MiniScope MS 100 EPR spectrometer (Magnettech GmbH, Germany), operating at a frequency of 9.5 GHz (X-band) with the following parameters: magnetic field: 336.0±9.9 mT; sweep time: 20 s; sampling: 4096 points; modulation amplitude: 0.10 mT; modulation frequency: 100 kHz; gain: 900; microwave power: 100 mW.

The test system of series [2] is human glioblastoma (U87) grafted onto the chick embryo chorioallantoic membrane. Briefly: In ovo tumor angiogenesis, glioblastoma grafted onto chick embryo chorioallantoic membrane (CAM). The format is in vivo. The conditions noted are these: 50 μM, 20 μL on tumor every 24 hours. On the procedure:
The effect of compound (1) on tumor angiogenesis was evaluated using the in ovo model based on human tumor grafted onto chick embryo chorioallantoic membrane (CAM).
This experimental approach makes it possible in only a few days to evaluate the tumor's progression and level of vascularization.
At the tenth day of embryonic development, glioblastoma cells (U87, 5×10^6 in 20 μL) were deposited on the chorioallantoic membrane. Two days after the graft, compound (1) at a concentration of 50 μM in a volume of 20 μL was deposited on the surface of the tumor formed. This treatment was repeated every 24 hours for 5 days. The control group was treated with solvent. The test was carried out on 20 eggs bearing glioblastoma tumors for each group. Images of the tumors were taken at day 3 (24 hours after treatment), at day 5 (3 days after treatment) and at day 7 (5 days after treatment) of tumor development. […] In order to determine the antiangiogenic mechanism of compound (1), VEGF was assayed by the ELISA method (Invitrogen, Novex technology), from the culture supernatant of U87 and HCT-116 cells, under normoxic and hypoxic conditions.

Series [3] has as its system endothelial cells (HUVEC). Briefly: Survival of endothelial cells in proliferative or quiescent phase. It is filed as cell-based, human. Particulars: 48 hours. On the procedure:
In order to understand the difference in the observed effects of compound (1) according to whether the vasculature is already formed or is growing “de novo”, vascular endothelial cells were cultured at two different cell densities so as to obtain proliferative phase cells or quiescent cells, then treated or not by compound (1), at 10 μM (IC50 value: 8 μM) for 48 hours. […] Compound (1) may thus be used to treat diseases associated with excessive and abnormal angiogenesis, like cancer or ARMD.

Series [4] has as its system K562R cells. Description: Cell growth test (CellTiter-Blue), K562R. The format is cell-based. Particulars: Homo sapiens, K-562R, normoxia, 72 hours, read-out: IC50 (50% decrease in cell growth). On the procedure:
(§1) The biological activity of compound (1), as well as that of its structural analogues, was studied in vitro on 7 different cancer cell lines: • HCT-116 (colorectal cancer) • U87 (glioblastoma) • K562 (myeloid leukemia) and K562 R • MDA-MB 231 (mammary adenocarcinoma) • MCF-7 (mammary adenocarcinoma) • A549 (pulmonary alveolar adenocarcinoma)
(§2) The cells selected for this study were incubated at 37° C. in the presence of compound (1) added in the culture medium at various concentrations and at various times. The set of experiments carried out made it possible to determine the degree of cytotoxicity of the compound tested (IC50), its capacity to induce cell death by apoptosis, in close dependence on extracellular superoxide anion for its activation.
(§3) The effect of compound (1) on the growth of HCT-116, U87, K562, K562R, MDA-MB 231, MCF-7 and A549 cells, cultured in normoxia, was evaluated using a cell growth test (CellTiter-Blue™ Cell Viability Assay, Promega).
(Resazurin is reduced to fluorescent resorufin, in cell work by metabolically active cells.)

Series [5] concerns MCF-7 cells. Description: Cell growth test (CellTiter-Blue), MCF-7. The format is cell-based. The conditions noted are these: Homo sapiens, MCF7; MCF-7, normoxia, 72 hours; read-out: IC50 (50% decrease in cell growth). How it is done: as §1, §2, §3
Series [6] concerns A549 cells. Briefly: Cell growth test (CellTiter-Blue), A549. The format is cell-based. Particulars: Homo sapiens; A549, normoxia, 72 hours; read-out: IC50 (50% decrease in cell growth). How it is done: as §1, §2, §3
Series [7] relates to caspases 3 and 7 in HCT-116 cells. Briefly: Caspase 3 and 7 activity (ApoONE test), HCT-116. It is filed as cell-based. How it is done:
(§4) In order to specify whether compound (1) leads to apoptotic cell death, the activity of caspases 3 and 7, marker enzymes of apoptosis, was measured using the ApoONE test (Promega) in HCT-116, U87 and HL60 cells treated in normoxia for 24 hours with compound (1) at concentrations varying from 1 μM to 50 μM.
(§5) In order to determine the role of superoxide anion, produced by the cells, in the activation of compound (1), HCT-116 cells were pretreated for 1 hour with the enzyme superoxide dismutase (SOD1) at 50 U/ml, then treated with compound (1). The cells were analyzed to evaluate, firstly, cell survival in normoxia (72 hours of treatment) and in hypoxia (48 hours of treatment). Secondly, the formation of condensed chromatin in normoxia and the activity of caspases 3 and 7 in normoxia were evaluated.

Series [8] relates to caspases 3 and 7 in HL60 cells. Briefly: Caspase 3 and 7 activity (ApoONE test), HL60. Particulars: HL60, normoxia, 24 hours, 1 μM to 50 μM. The format is cell-based. On the procedure: as §4
Series [9] concerns HCT-116 cells. Briefly: Cell survival after SOD pretreatment. The format is cell-based. The conditions noted are these: HCT-116, SOD1 50 U/ml 1 hour pretreatment. On the procedure: as §5
The test system of series [10] is HCT-116 cells. Description: Condensed chromatin (Hoechst 33258) after SOD pretreatment. It is filed as cell-based. Particulars: HCT-116, SOD1 50 U/ml pretreatment, normoxia. How it is done:
as §5

Take `OCCCn1cc(-c2ccccc2)c(-c2ccc(O)c(O)c2)c1` [compound (1)]: the IC50 was 2.5 µM in series [1]; 8 µM in series [3] (Homo sapiens, HUVEC, read-out: IC50 value, vascular endothelial cells); 12.5 µM in series [4]; 15 µM in [5]; 15 µM in series [6]. Further, in series [2] (after 3 treatments (day 5), also day 7, vs control group), the tumor vascularization result is reported as “inhibition of tumor vascularization”. The “growth of the treated tumor” value in series [2] (day 7) is recorded as “significant inhibition of the growth of the treated tumor”. Moreover, the “effect on quiescent endothelial cells” value in [3] (10 μM, quiescent cells) is “acts only on endothelial cells in the proliferative phase”. In addition, the inhibition at 10 µM in [3] (Homo sapiens, HUVEC, 10 μM, proliferative phase) came to 78%. Also, the “activation of caspases 3-7 after SOD pretreatment” value in [7] (HCT-116, SOD1 50 U/ml pretreatment, normoxia) is “completely suppressed”. Also, the “activity of caspases 3 and 7” value is recorded as “significant activation of both caspases” in [7] (HCT-116, normoxia, 24 hours, 1 μM to 50 μM) and “strongest activation” in series [8]. Further, the “cytotoxic effect after SOD pretreatment” value in series [9] (10 μM, normoxia, 72 hours) was “completely blocks the cytotoxic effect”; in [9] (25 μM, hypoxia, 48 hours), “completely blocks the cytotoxic effect”. The “increase in condensed chromatin after SOD pretreatment” value in [10] was “completely suppresses the increase in condensed chromatin”.

By IC50 is commonly meant the concentration that gives 50% inhibition. One may read the inhibition as how much of the control response was suppressed. Low values mean little suppression, high ones strong suppression.

The record behind these values is US10233151B2, “Use of a novel 3-aryl-4-catechol-pyrrole-N-propanol compound and the derivatives thereof to treat cancer and diseases related to excessive angiogenesis” (Centre National de la Recherche Scientifique (CNRS), priority 2014, dated 2019).
